Test results from ChEMBL document CHEMBL1201862, “PubChem BioAssay data set” (2004).
Calls of active or inactive are those of the source.

Legend:
SUMO-activating enzyme [1] = biological target: T1, SUMO-activating enzyme (Homo sapiens, UniProt Q9UBT2); test: SUMOylation inhibitor hit validation, confirmation, SUMOylation inhibitor project, biochemical, AlphaScreen (AID 2018); type: functional
Exodeoxyribonuclease V = biological target: T2, Exodeoxyribonuclease V (Escherichia coli (strain K12), UniProt P04993+P07648+P08394); test: E. coli RecBCD inhibitors, dose response, counter-screen for AddAB inhibitor project, absorbance, V66 E. coli, mutant T4 phage (AID 492957); type: functional, cell-based, Escherichia coli str. K-12 substr. MG1655
T2 sequence (P04993 whole entry): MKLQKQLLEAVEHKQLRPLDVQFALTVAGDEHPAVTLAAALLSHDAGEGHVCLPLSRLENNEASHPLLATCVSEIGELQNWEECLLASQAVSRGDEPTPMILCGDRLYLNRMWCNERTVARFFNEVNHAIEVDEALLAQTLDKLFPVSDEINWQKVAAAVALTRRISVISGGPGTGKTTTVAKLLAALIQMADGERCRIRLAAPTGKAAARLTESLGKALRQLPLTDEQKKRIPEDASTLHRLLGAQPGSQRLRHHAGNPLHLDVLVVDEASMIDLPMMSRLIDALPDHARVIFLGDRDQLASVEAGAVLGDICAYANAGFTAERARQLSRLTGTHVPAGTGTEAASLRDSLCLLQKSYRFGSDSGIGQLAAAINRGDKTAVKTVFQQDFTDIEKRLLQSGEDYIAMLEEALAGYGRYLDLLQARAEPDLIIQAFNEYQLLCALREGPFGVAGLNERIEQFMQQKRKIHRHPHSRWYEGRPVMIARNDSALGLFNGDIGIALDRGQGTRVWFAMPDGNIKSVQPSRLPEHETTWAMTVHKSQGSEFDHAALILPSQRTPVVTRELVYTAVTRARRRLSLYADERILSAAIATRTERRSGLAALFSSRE
T2 sequence (P07648 whole entry): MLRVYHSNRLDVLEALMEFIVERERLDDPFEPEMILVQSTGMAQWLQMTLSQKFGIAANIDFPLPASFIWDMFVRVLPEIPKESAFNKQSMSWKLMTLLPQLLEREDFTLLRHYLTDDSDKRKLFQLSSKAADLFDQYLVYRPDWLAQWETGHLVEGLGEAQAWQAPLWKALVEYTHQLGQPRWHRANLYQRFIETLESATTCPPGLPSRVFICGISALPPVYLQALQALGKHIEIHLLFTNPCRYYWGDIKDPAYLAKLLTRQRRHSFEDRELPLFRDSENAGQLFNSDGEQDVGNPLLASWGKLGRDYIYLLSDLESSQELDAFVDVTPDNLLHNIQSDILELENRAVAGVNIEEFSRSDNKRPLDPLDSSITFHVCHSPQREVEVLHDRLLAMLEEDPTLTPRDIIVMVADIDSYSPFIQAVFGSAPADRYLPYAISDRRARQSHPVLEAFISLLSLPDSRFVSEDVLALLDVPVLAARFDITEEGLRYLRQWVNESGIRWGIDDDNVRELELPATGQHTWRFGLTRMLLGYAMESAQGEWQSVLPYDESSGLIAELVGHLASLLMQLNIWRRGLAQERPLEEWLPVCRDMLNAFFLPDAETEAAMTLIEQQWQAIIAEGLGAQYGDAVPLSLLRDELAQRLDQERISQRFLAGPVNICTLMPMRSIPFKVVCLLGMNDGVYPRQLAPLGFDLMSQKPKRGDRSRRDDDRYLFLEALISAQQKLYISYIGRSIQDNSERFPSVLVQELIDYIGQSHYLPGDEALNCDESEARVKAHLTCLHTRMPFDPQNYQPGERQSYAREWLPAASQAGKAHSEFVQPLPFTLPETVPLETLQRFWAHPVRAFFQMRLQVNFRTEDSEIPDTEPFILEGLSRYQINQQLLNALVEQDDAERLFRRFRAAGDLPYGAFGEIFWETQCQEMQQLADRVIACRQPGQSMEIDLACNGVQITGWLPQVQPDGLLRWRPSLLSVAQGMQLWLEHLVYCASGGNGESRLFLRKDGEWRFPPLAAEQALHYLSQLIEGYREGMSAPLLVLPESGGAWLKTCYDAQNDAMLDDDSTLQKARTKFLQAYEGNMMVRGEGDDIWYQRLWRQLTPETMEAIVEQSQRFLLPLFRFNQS
T2 sequence (P08394 whole entry): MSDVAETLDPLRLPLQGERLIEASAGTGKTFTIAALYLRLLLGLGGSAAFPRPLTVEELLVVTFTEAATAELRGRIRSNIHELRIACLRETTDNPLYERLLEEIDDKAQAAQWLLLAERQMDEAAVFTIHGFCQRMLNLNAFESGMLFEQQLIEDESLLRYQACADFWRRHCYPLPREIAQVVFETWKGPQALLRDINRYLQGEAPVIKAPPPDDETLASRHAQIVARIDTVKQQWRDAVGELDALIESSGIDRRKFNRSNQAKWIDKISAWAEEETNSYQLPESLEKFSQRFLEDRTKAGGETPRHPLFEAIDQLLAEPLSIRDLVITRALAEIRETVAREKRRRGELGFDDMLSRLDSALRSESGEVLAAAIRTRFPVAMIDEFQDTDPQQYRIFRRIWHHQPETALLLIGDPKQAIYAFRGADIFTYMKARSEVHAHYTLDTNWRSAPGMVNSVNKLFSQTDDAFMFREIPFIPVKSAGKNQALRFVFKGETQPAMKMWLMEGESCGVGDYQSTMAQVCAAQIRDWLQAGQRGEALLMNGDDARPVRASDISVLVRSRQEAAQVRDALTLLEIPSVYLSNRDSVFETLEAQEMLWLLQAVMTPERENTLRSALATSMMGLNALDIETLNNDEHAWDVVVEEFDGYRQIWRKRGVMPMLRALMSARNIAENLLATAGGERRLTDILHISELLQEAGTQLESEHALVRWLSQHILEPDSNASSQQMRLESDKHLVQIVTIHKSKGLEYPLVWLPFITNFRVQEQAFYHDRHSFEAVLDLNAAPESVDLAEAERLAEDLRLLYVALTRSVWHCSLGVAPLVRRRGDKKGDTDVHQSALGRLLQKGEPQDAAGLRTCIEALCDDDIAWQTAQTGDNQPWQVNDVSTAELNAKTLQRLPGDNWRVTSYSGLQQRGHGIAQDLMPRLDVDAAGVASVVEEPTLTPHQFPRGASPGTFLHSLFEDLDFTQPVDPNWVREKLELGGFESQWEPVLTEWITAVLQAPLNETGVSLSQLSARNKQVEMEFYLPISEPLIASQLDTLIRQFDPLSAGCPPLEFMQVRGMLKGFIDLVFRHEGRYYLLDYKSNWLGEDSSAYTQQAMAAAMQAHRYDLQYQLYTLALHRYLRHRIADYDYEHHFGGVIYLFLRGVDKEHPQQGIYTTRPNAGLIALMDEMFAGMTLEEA

Albumin = Albumin (Bos taurus, UniProt P02769); test: Counterscreen for inhibitors of T-cell receptor (TCR)-CD3 interaction: Fluorescence-based biochemical high throughput dose response assay to identify inhibitors of T-cell receptor (TCR)-CD3 interaction using a TAMRA-labeled BSA probe.; type: functional
Sequence of Albumin (P02769 whole entry): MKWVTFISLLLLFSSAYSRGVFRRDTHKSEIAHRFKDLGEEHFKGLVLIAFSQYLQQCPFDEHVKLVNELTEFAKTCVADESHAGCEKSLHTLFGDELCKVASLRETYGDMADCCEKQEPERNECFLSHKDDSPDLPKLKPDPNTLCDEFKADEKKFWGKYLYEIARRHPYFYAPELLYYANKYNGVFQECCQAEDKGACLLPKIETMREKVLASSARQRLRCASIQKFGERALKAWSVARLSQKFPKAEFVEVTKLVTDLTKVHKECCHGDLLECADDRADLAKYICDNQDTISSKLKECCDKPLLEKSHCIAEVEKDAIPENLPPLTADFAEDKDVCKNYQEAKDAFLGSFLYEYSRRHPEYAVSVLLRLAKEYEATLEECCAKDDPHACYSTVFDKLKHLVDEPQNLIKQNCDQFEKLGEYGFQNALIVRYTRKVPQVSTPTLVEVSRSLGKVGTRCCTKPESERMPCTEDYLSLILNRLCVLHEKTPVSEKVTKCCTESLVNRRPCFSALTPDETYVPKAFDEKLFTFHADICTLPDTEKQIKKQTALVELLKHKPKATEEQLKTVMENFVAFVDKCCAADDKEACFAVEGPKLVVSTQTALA

[2] = Counterscreen for AddAB inhibitors: absorbance-based bacterial cell-based high throughput dose response assay for inhibitors of bacterial viability. [Related pubchem assays (depositor defined):AID435030, AID449728, AID449731, AID488942, AID488955, AID488956]; type: functional
SUMO-activating enzyme [3] = biological target: T1, SUMO-activating enzyme; test: inhibitors of in vitro SUMOylation cascade, primary screen, biochemical, HTRF, uHTS (AID 2006); type: protein-complex assay
HeLa = test: HeLa cell cytotoxicity, dose response, cytotoxicity control for MITF activator project, CellTiter-Glo luminescence, cherry-pick samples (AID 540259); type: functional, cell-based; conditions: Homo sapiens
Escherichia coli = test: microbe, parasite or virus in culture
HEK293 = test: cells; conditions: Homo sapiens;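 also: cells exposed to compound for 14 hours overnight before viability readout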
[4] = biological target: T3, Nucleotide-binding oligomerization domain-containing protein 1 (Homo sapiens, UniProt Q9Y239); test: NOD1 signaling inhibitors, SAR follow-up, revised (AID 2333); type: functional
T3 sequence (Q9Y239 whole entry): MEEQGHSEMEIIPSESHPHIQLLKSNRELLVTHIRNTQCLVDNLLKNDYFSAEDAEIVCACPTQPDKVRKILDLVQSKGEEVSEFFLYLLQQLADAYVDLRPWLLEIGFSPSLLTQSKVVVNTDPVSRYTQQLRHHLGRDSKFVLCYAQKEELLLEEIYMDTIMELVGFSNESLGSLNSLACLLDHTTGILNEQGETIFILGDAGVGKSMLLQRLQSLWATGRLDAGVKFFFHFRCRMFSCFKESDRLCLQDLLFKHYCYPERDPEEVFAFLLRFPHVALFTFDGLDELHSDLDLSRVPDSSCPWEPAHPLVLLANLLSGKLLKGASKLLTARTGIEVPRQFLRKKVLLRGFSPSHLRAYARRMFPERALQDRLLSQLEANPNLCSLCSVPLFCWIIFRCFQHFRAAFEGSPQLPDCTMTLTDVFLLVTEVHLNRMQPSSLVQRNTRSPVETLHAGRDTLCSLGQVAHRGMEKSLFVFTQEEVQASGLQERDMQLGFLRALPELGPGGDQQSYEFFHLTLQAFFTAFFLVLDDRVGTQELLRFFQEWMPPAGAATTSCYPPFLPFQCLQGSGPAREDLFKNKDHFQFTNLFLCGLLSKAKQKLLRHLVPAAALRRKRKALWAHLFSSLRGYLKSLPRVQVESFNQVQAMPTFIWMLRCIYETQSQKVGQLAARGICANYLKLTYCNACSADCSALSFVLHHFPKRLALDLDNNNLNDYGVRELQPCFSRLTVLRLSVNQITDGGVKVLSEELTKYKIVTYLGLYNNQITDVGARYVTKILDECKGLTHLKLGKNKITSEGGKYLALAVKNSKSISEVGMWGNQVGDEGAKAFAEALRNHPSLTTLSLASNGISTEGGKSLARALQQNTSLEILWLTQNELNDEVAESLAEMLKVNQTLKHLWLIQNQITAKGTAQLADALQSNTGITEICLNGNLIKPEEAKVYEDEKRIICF

Tumor necrosis factor = Tumor necrosis factor (Homo sapiens, UniProt P01375); test: TNFa-triggered NF-kB activation inhibitors, SAR follow-up, cell-based, revised (AID 2337); type: functional
Sequence of Tumor necrosis factor (P01375 whole entry): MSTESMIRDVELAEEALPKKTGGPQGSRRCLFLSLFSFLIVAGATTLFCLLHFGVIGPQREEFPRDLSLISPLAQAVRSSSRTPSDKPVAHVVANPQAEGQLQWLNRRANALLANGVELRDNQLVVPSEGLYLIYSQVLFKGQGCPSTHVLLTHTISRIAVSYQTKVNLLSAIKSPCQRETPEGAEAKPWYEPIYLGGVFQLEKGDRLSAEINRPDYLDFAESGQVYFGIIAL

Phospholipase D2 = Phospholipase D2 (Homo sapiens, UniProt O14939); test: PLD2 inhibitor potency in cells, dose response (AID 602147); type: functional;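 also: cellular assay in HEK293 cells overexpressing GFP-tagged PLD2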
Sequence of Phospholipase D2 (O14939 whole entry): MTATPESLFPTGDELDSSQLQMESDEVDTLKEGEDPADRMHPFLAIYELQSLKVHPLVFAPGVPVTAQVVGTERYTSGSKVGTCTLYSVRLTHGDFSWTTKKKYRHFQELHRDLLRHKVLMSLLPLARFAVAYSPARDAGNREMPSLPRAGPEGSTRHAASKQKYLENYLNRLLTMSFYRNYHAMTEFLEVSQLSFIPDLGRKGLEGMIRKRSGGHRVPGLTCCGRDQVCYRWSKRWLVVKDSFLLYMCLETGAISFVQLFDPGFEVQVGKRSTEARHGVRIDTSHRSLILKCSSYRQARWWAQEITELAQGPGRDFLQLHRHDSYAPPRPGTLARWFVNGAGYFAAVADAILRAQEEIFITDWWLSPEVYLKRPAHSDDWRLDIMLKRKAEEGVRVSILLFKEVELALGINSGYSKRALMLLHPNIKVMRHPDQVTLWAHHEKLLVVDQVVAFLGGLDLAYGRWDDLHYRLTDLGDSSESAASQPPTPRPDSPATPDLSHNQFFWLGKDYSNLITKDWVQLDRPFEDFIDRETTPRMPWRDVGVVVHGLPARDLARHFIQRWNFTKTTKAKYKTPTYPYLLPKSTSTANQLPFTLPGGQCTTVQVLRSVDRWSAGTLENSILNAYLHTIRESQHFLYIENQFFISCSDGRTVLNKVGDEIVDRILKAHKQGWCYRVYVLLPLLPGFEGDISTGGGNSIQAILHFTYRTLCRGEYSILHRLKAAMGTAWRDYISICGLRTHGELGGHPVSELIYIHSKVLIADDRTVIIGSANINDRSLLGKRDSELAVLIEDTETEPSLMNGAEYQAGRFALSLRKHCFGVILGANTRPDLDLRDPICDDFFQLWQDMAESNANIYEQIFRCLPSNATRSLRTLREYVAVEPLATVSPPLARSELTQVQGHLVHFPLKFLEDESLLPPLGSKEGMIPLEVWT

Phospholipase D1 = biological target: T4, Phospholipase D1 (Homo sapiens, UniProt Q13393); test: PLD1 inhibitor potency in cells, dose response (AID 602151); type: functional;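 also: cellular PLD1 assay in Calu-1 cells stimulated with PMA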
T4 sequence (Q13393 whole entry): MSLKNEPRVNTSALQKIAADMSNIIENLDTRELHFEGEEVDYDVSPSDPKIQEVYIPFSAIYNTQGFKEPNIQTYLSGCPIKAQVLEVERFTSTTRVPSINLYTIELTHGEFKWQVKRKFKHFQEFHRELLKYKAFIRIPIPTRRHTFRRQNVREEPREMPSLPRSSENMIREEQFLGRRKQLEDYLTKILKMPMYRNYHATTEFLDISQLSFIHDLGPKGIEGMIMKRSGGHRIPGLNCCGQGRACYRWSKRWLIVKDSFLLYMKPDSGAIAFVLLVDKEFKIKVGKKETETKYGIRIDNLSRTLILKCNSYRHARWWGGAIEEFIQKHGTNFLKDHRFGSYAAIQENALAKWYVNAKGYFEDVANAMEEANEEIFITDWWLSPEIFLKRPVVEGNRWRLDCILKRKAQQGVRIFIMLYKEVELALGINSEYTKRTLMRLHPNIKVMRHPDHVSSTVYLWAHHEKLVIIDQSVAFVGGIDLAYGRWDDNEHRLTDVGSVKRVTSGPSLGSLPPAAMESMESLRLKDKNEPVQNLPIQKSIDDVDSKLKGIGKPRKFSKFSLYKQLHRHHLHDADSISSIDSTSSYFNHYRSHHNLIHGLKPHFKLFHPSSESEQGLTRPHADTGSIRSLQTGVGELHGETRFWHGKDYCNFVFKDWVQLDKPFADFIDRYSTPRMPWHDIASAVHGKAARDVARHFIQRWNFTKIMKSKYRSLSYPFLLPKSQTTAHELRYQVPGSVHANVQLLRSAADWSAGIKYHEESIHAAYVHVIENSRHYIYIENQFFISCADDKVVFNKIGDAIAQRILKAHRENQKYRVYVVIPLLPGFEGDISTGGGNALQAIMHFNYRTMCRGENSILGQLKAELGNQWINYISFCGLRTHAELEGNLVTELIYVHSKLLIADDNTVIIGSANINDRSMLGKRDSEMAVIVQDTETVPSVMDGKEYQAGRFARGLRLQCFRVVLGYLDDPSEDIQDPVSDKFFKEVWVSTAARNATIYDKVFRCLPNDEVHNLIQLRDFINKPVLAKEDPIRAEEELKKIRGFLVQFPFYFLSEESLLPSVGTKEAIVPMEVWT

T1 sequence (Q9UBE0 whole entry): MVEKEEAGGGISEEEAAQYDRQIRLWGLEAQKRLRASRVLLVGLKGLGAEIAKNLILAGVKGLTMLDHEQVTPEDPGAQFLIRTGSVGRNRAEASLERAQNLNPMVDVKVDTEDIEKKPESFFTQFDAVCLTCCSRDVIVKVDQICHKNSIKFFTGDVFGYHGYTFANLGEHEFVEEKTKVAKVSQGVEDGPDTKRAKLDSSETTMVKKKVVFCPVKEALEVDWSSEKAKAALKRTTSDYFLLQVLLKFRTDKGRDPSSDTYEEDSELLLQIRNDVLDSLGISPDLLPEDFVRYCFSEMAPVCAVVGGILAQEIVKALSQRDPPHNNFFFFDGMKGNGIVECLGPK
T1 sequence (Q9UBT2 whole entry): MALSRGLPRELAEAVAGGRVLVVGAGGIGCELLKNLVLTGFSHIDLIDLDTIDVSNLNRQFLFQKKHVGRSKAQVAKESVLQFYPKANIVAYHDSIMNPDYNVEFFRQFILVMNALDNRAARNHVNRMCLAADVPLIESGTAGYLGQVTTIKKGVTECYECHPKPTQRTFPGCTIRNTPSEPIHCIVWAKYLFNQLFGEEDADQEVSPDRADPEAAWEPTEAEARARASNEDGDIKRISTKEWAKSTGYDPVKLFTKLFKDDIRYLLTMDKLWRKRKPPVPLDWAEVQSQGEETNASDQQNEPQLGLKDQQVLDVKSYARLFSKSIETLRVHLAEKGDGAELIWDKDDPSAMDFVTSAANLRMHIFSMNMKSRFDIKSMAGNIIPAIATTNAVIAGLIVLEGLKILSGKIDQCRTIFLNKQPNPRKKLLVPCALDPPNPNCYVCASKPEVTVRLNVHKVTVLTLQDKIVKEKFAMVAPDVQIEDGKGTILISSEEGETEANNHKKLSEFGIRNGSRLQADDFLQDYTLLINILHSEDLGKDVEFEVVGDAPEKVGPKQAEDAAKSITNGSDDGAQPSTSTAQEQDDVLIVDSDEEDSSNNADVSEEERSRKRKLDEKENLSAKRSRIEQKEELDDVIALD

Structure (SMILES) | AC50 (HeLa) | IC50 (Phospholipase D2) | IC50 (Phospholipase D1) | further results
COc1cccc(/C=C2/SC(=S)N(CC(=O)NNC(=O)c3ccccc3O)C2=O)c1 | – | – | – | IC50 (SUMO-activating enzyme [1]): 29.4 µM (active); IC50 (Exodeoxyribonuclease V): > 119 µM (inactive); IC50 (Albumin): > 94.1 µM (inactive); IC50 [2]: > 119 µM (inactive); IC50 (SUMO-activating enzyme [3]): 11.8 µM (active)
COc1cccc(C(=O)Nc2ccc(NC(=O)C3CC3)cn2)c1 | 122 µM (active) | – | – | –
CCc1ccc(-c2cn3nc(-c4ccccc4)cnc3n2)cc1 | 241 µM (active) | – | – | –
Cc1ccc(C(=O)N(CCN2CCCCC2)CC2CCCN(C3CCCC3)C2)s1 (stereo not drawn) | 72.6 µM (active) | – | – | –
C[C@H](NC(=O)c1[nH]cnc1C(=O)NCCCCCNC(=O)OC(C)(C)C)c1ccccc1 | – | – | – | AC50 (Escherichia coli): 63.8 µM (active)
CC(=O)N1c2ccc(S(=O)(=O)N3CCN(c4ccc(Cl)cc4)CC3)cc2CC1C (stereo not drawn) | – | – | – | IC50 (HEK293): > 20 µM (inactive); IC50 [4]: 2.57 µM (active); IC50 (Tumor necrosis factor): 5.76 µM (active)
C[C@@H](CN1CC=C(n2c(=O)[nH]c3ccccc32)CC1)NC(=O)c1ccc2ccccc2c1 | – | 2.25 µM (active) | 0.05 µM (active) | –
C[C@@H](CN1CCC(n2c(=O)[nH]c3cc(I)ccc32)CC1)NC(=O)c1ccc2ccccc2c1 | – | 6.37 µM (active) | 0.028 µM (active) | –
C[C@@H](CN1CCC(n2c(=O)[nH]c3ccccc32)CC1)NC(=O)c1cc2ccccc2s1 | – | 0.22 µM (active) | 0.002 µM (active) | –
